Experimental data: US20120252721A1 (priority 2011, published 2012)

How the values were obtained:
[1] = test system: HCV genotype 2a; assay: Genotype 2a assay (NS5A-intergenotypic luciferase replicon / genotype 2a infectious virus assay); assay type: cell-based; conditions: Hepatitis C virus, read-out: EC50 2a
Excerpt: The nucleotide sequences of the NS5A region of genotype 2a (GenBank Accession # AB047639), genotype 3a (GenBank Accession #D17763), and genotype 4a (GenBank Accession# DQ418788) were synthesized by an outside vendor. The NS5A region of each of these genotypes included the first 11 amino acids of the protease recognition sequence of genotype 1b, as well as the last 10 amino acids of genotype 1b. The NS5A gene cassettes were excised with site specific restriction endonucleases and ligated into a ZS11-luciferase genotype 1b backbone (backbone contains the genotype 1b NS3 protease, NS4a, NS4b, and NS5b coding regions) with similarly cut restriction enzyme sites. Thus, the newly constructed plasmid contains a genotype 2a-, 3a- or 4a-specific NS5A gene within the 1b-replicon.
These new intergenotypic plasmids were used to establish stable cell lines. RNA was generated from the NS5A intergenotypic plasmids and used in conjunction with a lipofectin reagent to transfect a cured Huh7 cell line. Transfected cells were selected for with G418. After selection has occurred the stable cell lines were propagated, tested for luciferase activity, and RT-PCR with genotype specific primers (either 1a, 2a, 3a, or 4a). Stable cell lines containing the intergenotypic replicon were then fully sequenced and analyzed for proper expression of NS3, NS5A and NS5B proteins.
Drug titration analysis was performed using the luciferase replicon assay described herein.
The genotype 2a infectious virus assay measures the ability of a test compound to inhibit HCV replication in cell culture after 5 days of treatment at the time of HCV genotype 2a virus infection of a permissive human hepatoma cell line (HPC cells). The inhibition of HCV replication was measured by quantification of HCV core protein expression by an enzyme-linked immunosorbent assay (ELISA). Briefly, HPC cells were grown in DMEM containing glucose, L-glutamine and sodium pyruvate, 10% FBS, 100 IU/mL penicillin, 100 μg/mL streptomycin, 2 mM GlutaMAX, and non-essential amino acids. GlutaMAX was obtained from Invitrogen, Corp.; all other media reagents were obtained from Mediatech, Inc. For dose-response testing, ninety-six-well plates were seeded with HPC cells at a density of 2.5×10^3 cells/well in a volume of 50 μL, and incubated at 37° C./5% CO2. Three hours after plating, 50 μL of ten 5-fold serial dilutions of compound and 100 μL of genotype 2a virus were added, and cell cultures were incubated at 37° C./5% CO2. In all cases, mock infected HPC cells served as negative control. At 16 hours post treatment and infection, the virus inoculum was removed by aspiration. The cultures were treated at the same final concentrations of drug diluted in media and incubated for 4 additional days at 37° C./5% CO2. Subsequently, the core ELISA was performed as follows. The plates were fixed for 90 seconds with acetone/methanol (1:1, v/v), washed three times with KPL wash solution (KPL, Inc.), blocked for 1 hr at room temperature with TNE buffer containing 10% FBS and then incubated for 2 hr at 37° C. with the anti-HCV core mouse monoclonal antibody (Thermo Scientific) diluted in the same buffer. After washing three times with KPL wash solution, the cells were incubated for 1 hr at 37° C. with an anti-mouse immunoglobulin G-peroxidase conjugate in TNE/10% FBS. After washing as described above, the reaction was developed with O-phenylenediamine (Invitrogen). The reaction was stopped after 30 min with 2 NH2SO4, and absorbance was read at 490 nm in a Victor^3V 1420 multilabel counter (Perkin Elmer) and EC50 concentrations were determined using Microsoft Excel and XLfit 4.1 software.
The HCV luciferase replicon assay measures the ability of a test compound to inhibit HCV replication in cell culture after 3 days of treatment in a human hepatoma cell line (Huh-7) bearing an HCV replicon containing a luciferase-neomycin phosphotransferase fusion gene. […]

[2] = in vitro; assay type: cell-based, human; conditions: human; Table 1B, cellular viability
Summary of the method: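 Cytotoxicity counter-screen in which the H1a-luc or Zluc cells were compound-treated and viability was read with the CellTiter 96 AQueous One (MTS) reagent by absorbance at 490 nm. CC50 values came from curve fitting.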

[3] = test system: HCV genotype 1b replicon, NS5B M414T; assay: Luciferase replicon transient transfection assay, genotype 1b NS5B M414T; assay type: cell-based, hepatitis C virus
Procedure: The luciferase replicon transient transfection assay measures the ability of a test compound to inhibit the replication of a transiently-transfected HCV luciferase-bearing wild-type or mutant replicon in cured human hepatoma cells (Huh7.5). The inhibition of HCV replication was measured by quantification of luciferase protein expression. This assay has been validated using a panel of genotype 1a and 1b replicons bearing mutations known to be associated with resistance to BMS-790052. Briefly, subconfluent Huh7.5 cells were electroporated with 10 μg of wild-type or mutant luciferase-bearing HCV replicon RNA. The cells were then seeded in 96-well opaque white plates at 3×10^4 cells/well in 150 μL/well and incubated for 4 hrs at 37° C./5% CO2. […] The plates were agitated on a rotating platform at room temperature for 3 min and read in a Victor^3V microplate reader (Perkin-Elmer) using a 700 nm cut-off filter with a 1 sec read time. EC50 values were calculated from dose response curves from the resulting best-fit equations determined by Microsoft Excel and XLfit 4.1 software.
To determine the replication capacity of each mutant relative to the wild-type parental replicon, transfected cells were plated on two plates and were not treated with compound. Luciferase activity was measured at time points of 4 hrs and 4 days after plating for each replicon. […]

Compound	EC50 [1] [nM]	CC50 [2] [nM]	EC50 ([3]; Hepatitis C virus, genotype 1b, NS5B mutation M414T (confers resistance to Benzothiadiazine)) [nM]	Ratio ([3]; {})
COC(=O)N[C@H](C(=O)N1CCC[C@H]1c1ncc(-c2ccc(-c3csc4c(-c5cnc([C@@H]6CCCN6C(=O)[C@@H](NC(=O)OC)C(C)C)[nH]5)csc34)cc2)[nH]1)C(C)C [Compound A15, [(S)-1-((S)-2-{4-[4-(6-{2-[(S)-1-((S)-2-methoxycarbonylamino-3-methyl-butyryl)-pyrrolidin-2-yl]-3H-imidazol-4-yl}-thieno[3,2-b]thiophen-3-yl)-phenyl]-1H-imidazol-2-yl}-pyrrolidine-1-carbonyl)-2-methyl-propyl]-carbamic acid methyl ester]	< 0.1	10000 to 75000	–	–
COC(=O)N[C@H](C(=O)N1CCC[C@H]1c1nc2cc(-c3csc4c(-c5ccc(-c6cnc([C@@H]7CCCN7C(=O)[C@H](NC(=O)OC)c7ccccc7)[nH]6)cc5)csc34)ccc2[nH]1)C(C)C [Compound A169, [(S)-1-((S)-2-{6-[6-(4-{(S)-2-[1-((R)-2-methoxycarbonylamino-2-phenyl-acetyl)-pyrrolidin-2-yl]-3H-imidazol-4-yl}-phenyl)-thieno[3,2-b]thiophen-3-yl]-1H-benzoimidazol-2-yl}-pyrrolidine-1-carbonyl)-2-methyl-propyl]-carbamic acid methyl ester]	–	–	0.0018	1.05
